{"source": "paper PMC12648656", "about": "“Palladium(II) Complexes with Noncovalent Interactions with DNA: Solution Speciation Controlled by Solvent Identity, pH, and Concentration” (Inorganic Chemistry, 2025)", "key": {"[1]": {"test_system": "Enterococcus faecalis (ATCC 29212)", "test": "Antibacterial MIC, broth dilution", "format": "cell-based", "conditions": "E. faecalis, 18 h, 37 °C", "experimental": "(§1) Antibacterial activity was determined for the title compounds in various Gram-negative and Gram-positive bacterial strains, namely Klebsiella pneumoniae, Escherichia coli (ATCC 25922), Staphylococcus aureus (272123), methicillin-resistant Staphylococcus aureus (ATCC 43300), and Enterococcus faecalis (ATCC 29212). The stock solutions of the tested compounds were prepared in DMSO at a 5 mM concentration. […] All stock solutions were diluted in 100 μL of Mueller Hinton Broth, and then two-fold serial dilutions were performed. Then, a 10^–4 dilution of an overnight bacterial culture in 100 μL of medium was added to each well, except for the medium control wells. The highest concentration of the compounds in the tested samples was 100 μM. The plates were incubated at 37 °C for 18 h. After that, the MIC values were determined by visual inspection."}, "[2]": {"test_system": "Escherichia coli (ATCC 25922)", "test": "Antibacterial MIC, broth dilution", "format": "cell-based", "conditions": "E. coli, 18 h, 37 °C", "experimental": "as §1"}, "[3]": {"test_system": "Klebsiella pneumoniae", "test": "Antibacterial MIC, broth dilution", "format": "cell-based", "conditions": "K. pneumoniae, 18 h, 37 °C", "experimental": "as §1"}, "[4]": {"test_system": "Staphylococcus aureus (272123)", "test": "Antibacterial MIC, broth dilution", "format": "cell-based", "conditions": "S. aureus, 18 h, 37 °C", "experimental": "as §1"}, "[5]": {"test_system": "methicillin-resistant Staphylococcus aureus (ATCC 43300)", "test": "microbe, parasite or virus in culture", "format": "cell-based", "conditions": "S. aureus (MRSA), 18 h, 37 °C", "experimental": "as §1"}, "[6]": {"test": "Stability and DMSO coordination in DMSO by 1H NMR", "format": "physicochemical", "experimental": "(a) Complex (2) solutions in DMSO (D2O) investigated by NMR spectroscopy: Trying to investigate if the higher concentration is responsible for the complex transformation process in DMSO, we monitored the solution of complex (2) at 0.5 and 1 mM by ^1H NMR spectroscopy (Figure a). We could clearly see that complex (2) is only detected pure at a concentration of 0.5 mM.\nNMR spectra were recorded at room temperature, using a two-channel 300 MHz Bruker Avance III-HD Nanobay spectrometer equipped with a 5 mm BBO 1H/X probe and Z gradients, located at the Interdepartmental Investigation Service (SIdI). DMSO-d 6 was used as the solvent (containing 0.05% (v/v) tetramethylsilane (TMS) as a reference). Chemical shift values are given in parts per million relative to the residual TMS signals. The following abbreviations were used: s (singlet), d (doublet), and m (multiplet). Elemental analyses were performed on a LECO CHNS-932 elemental analyzer located at SIdI. Mass spectra were recorded using FAB (fast atom bombardment) in a Waters VG AutoSpec mass spectrometry unit and using MALDI (matrix-assisted laser desorption/ionization) with a Bruker Ultraflex III (MALDI-TOF/TOF) mass spectrometry unit, both located at SIdI. Infrared (IR) spectra were recorded using a PerkinElmer Model 283 spectrometer with an attenuated total reflectance (ATR) MIRacle Single Reflection Horizontal accessory and equipped with CsI optical windows for spectra between 600 and 200 cm^–1 in Nujol mull preparations. Absorbance spectra were recorded using a Thermo Evolution 220 spectrophotometer to record the UV–visible region, equipped with temperature control within ±0.1 °C. Viscosity measurements were performed using an A&D SV-1A vibro viscometer. HPLC analyses were carried out utilizing a 1200 Infinity series HPLC system provided by Agilent Technologies coupled to a photodiode array detector."}, "[7]": {"test_system": "glutathione (GSH)", "test": "Reaction with glutathione followed by UV-vis", "conditions": "30-fold GSH, ~20 μM complex, 60% (v/v) DMSO/phosphate buffer pH 7.4, 25.0 °C", "experimental": "Reactions between the title compounds and GSH were also followed by UV–vis spectrophotometry under an inert atmosphere to overcome oxidation of GSH by air oxygen. Samples contained the metal complexes at low concentrations (∼20 μM) and were prepared using 60% (v/v) DMSO/phosphate buffer solution (pH 7.4) to avoid precipitation. The reactants were separated in the pockets of a tandem cuvette, followed by deoxygenation by argon bubbling. The separate solutions were mixed at 1:30 metal complex:GSH molar ratios, and UV–vis spectra were recorded. Argon was continuously passed over the sample during the whole measurement."}, "[8]": {"test_system": "calf thymus-DNA (CT-DNA)", "test": "UV-vis titration with CT-DNA", "format": "binding", "conditions": "complex/DNA ratio 0 to 0.79; 5 mM Tris, 50 mM NaCl, pH 7.40, 25 °C", "experimental": "To investigate the potential binding ability of the palladium complexes (2) and (3) with DNA, UV–vis titrations (240 to 700 nm) were performed at room temperature. During the titrations, the CT-DNA concentration (5.08 × 10^–5 M) was kept constant, while the concentration of each complex (0 to 2.00 × 10^–5 M) was varied. The changes in the typical absorbance of CT-DNA at 260 nm were monitored after equilibration (10 min) and after 1 h of incubation at 37 °C. […] Control experiments with DMSO were performed, and no changes in the CT-DNA spectrum were observed."}, "[9]": {"test_system": "pBR322 plasmid DNA", "test": "Agarose gel electrophoresis mobility shift", "format": "binding", "conditions": "r i 0.01 to 0.20, 24 h, 37 °C", "experimental": "Complexes (2) and (3) were incubated at 37 °C with a concentration of 0.0625 μg/μL pBR322 plasmid DNA at different concentrations expressed as r i = complex:DNA (base pair) ratio. The r i used was from 0.01 to 0.20, in a total volume of 20 μL. After an incubation period of 24 h, the mobility of the complex-treated pBR322 samples was analyzed by gel electrophoresis at 70 V in Tris/acetate/EDTA buffer. A control of pBR322 was also incubated, and a 1 kb ladder aliquot was loaded into lane 1 of the gel. The gel was stained with an ethidium bromide aqueous solution, and DNA bands were visualized with a UV-transilluminator UVITEC Cambridge UVIDOC HD2 instrument. The studies were performed with 3% (v/v) DMSO as the final solution."}, "[10]": {"test": "Stability under light in DMSO by UV-vis", "format": "physicochemical", "conditions": "first 2.5 h", "text": "The stability of the stock solutions and the effect of diffuse solar irradiation were monitored in DMSO by UV–visible (UV–vis, see Methods) spectra in the 260 to 860 nm wavelength range, and the path length was 1 cm. The initial sample was divided equally into two portions for the stability studies; one portion was irradiated with diffuse light and followed over time, while the other one was stored, protected from light, and measured 1 day after dissolution."}}, "data": [{"smiles": "Clc1ccc(N=C2N[N+](=Cc3c[nH]cn3)[Pd-2]3([S]C(Nc4ccc(Cl)cc4)=N[N+]3=Cc3c[nH]cn3)[S]2)cc1", "note": "(stereo not drawn) [(2), Bis(1H-imidazole-4-carboxaldehyde-4N-p-chlorophenylthiosemicarbazonato)palladium(II)]", "values": [{"measurement": "MIC", "setting": "[1]", "value": "> 100", "unit": "µM"}, {"measurement": "MIC", "setting": "[2]", "value": "> 100", "unit": "µM"}, {"measurement": "MIC", "setting": "[3]", "value": "> 100", "unit": "µM"}, {"measurement": "MIC", "setting": "[4]", "value": "> 100", "unit": "µM"}, {"measurement": "MIC", "setting": "[5]", "value": "> 100", "unit": "µM"}, {"measurement": "molar fraction of DMSO-coordinated species (complex (3)) formed", "setting": "[6]; 0.5 mM", "value": 0, "unit": "%"}, {"measurement": "molar fraction of DMSO-coordinated species (complex (3)) formed", "setting": "[6]; 3 mM, does not increase over 24 h", "value": 8, "unit": "%"}, {"measurement": "time 1H NMR spectrum remains stable", "setting": "[6]; in DMSO", "value": "up to 24 h"}, {"measurement": "time to equilibrium of the reaction with GSH", "setting": "[7]", "value": "≤ 30", "unit": "min"}, {"measurement": "change of CT-DNA absorption at 260 nm", "setting": "[8]", "value": "absorption values of DNA–complex samples increase"}, {"measurement": "effect on electrophoretic mobility of supercoiled pBR322 (pure form)", "setting": "[9]", "value": "small unwinding"}, {"measurement": "spectral changes when not protected from light", "setting": "[10]", "value": "only minor changes"}]}]}
